The values below come from US20230330045A1 (priority 2020, published 2023).

The target in one experiment is A2A (h) (Homo sapiens, UniProt P29274). Briefly: SafetyScreen44 binding assay A2A (h). Conditions: agonist radioligand, read-out: % Inhibition of Specific Control Binding. The source says:
(§1) This panel included 38 binding assays and six functional assays of well-established targets and pathways that lead to off-target adverse drug reactions.

Another experiment deals with alpha 1A (h) (Homo sapiens, UniProt P35348). Briefly: SafetyScreen44 binding assay alpha 1A (h). Conditions: antagonist radioligand, read-out: % Inhibition of Specific Control Binding.
Source text: as §1

The next experiment has as its target beta 1 (h) (Homo sapiens, UniProt P08588). Briefly: SafetyScreen44 binding assay beta 1 (h). Conditions: agonist radioligand, read-out: % Inhibition of Specific Control Binding.
Source text: as §1

The target of the next experiment is beta 2 (h) (Homo sapiens, UniProt P07550). Briefly: SafetyScreen44 binding assay beta 2 (h). Conditions: antagonist radioligand, read-out: % Inhibition of Specific Control Binding.
Source text: as §1

In the next experiment the target is CB1 (h) (Homo sapiens, UniProt P21554). Briefly: SafetyScreen44 binding assay CB1 (h). Conditions: agonist radioligand, read-out: % Inhibition of Specific Control Binding.
Source text: as §1

Another experiment addresses CB2 (h) (Homo sapiens, UniProt P34972). Description: SafetyScreen44 binding assay CB2 (h). Conditions: agonist radioligand, read-out: % Inhibition of Specific Control Binding.
Source text: as §1

The next experiment addresses D1 (h) (Homo sapiens, UniProt P21728). Description: SafetyScreen44 binding assay D1 (h). Conditions: antagonist radioligand, read-out: % Inhibition of Specific Control Binding.
Source text: as §1

The target of the next experiment is M1 (h) (Homo sapiens, UniProt P11229). Description: SafetyScreen44 binding assay M1 (h). Conditions: antagonist radioligand, read-out: % Inhibition of Specific Control Binding.
Source text: as §1

The target of a further experiment is M2 (h) (Homo sapiens, UniProt P08172). Briefly: SafetyScreen44 binding assay M2 (h). Conditions: antagonist radioligand, read-out: % Inhibition of Specific Control Binding.
Source text: as §1

The target in a further experiment is M3 (h) (Homo sapiens, UniProt P20309). Briefly: SafetyScreen44 binding assay M3 (h). Conditions: antagonist radioligand, read-out: % Inhibition of Specific Control Binding.
Source text: as §1

In experiment [1] the target is N neuronal alpha 4beta 2 (h) (Homo sapiens, UniProt P17787+P43681). Description: SafetyScreen44 binding assay N neuronal alpha 4beta 2 (h). Conditions: agonist radioligand, read-out: % Inhibition of Specific Control Binding.
Source text: as §1

The target of a further experiment is mu (MOP) (h) (Homo sapiens, UniProt P35372). Description: SafetyScreen44 binding assay mu (MOP) (h). Conditions: agonist radioligand, read-out: % Inhibition of Specific Control Binding.
Source text: as §1

A further experiment deals with 5-HT2A (h) (Homo sapiens, UniProt P28223). Briefly: SafetyScreen44 binding assay 5-HT2A (h). Conditions: agonist radioligand, read-out: % Inhibition of Specific Control Binding.
Source text: as §1

A further experiment deals with V1a (h) (Homo sapiens, UniProt P37288). Briefly: SafetyScreen44 binding assay V1a (h). Conditions: agonist radioligand, read-out: % Inhibition of Specific Control Binding.
Source text: as §1

For a further experiment, the system named is Na+ channel (site 2). Description: SafetyScreen44 binding assay Na+ channel (site 2). Conditions: at 1 μM; antagonist radioligand.
Source text: as §1

Experiment [2] has as its target norepinephrine transporter (h) (Homo sapiens, UniProt P23975). Description: SafetyScreen44 binding assay norepinephrine transporter (h). Conditions: antagonist radioligand, read-out: % Inhibition of Specific Control Binding.
Source text: as §1

Another experiment deals with COX2(h) (Homo sapiens, UniProt P35354). Description: SafetyScreen44 enzyme assay COX2(h). Type of experiment: biochemical. Conditions: read-out: % Inhibition of Control Values.
Source text: as §1

Sequence of beta 1 (h) (P08588 whole entry): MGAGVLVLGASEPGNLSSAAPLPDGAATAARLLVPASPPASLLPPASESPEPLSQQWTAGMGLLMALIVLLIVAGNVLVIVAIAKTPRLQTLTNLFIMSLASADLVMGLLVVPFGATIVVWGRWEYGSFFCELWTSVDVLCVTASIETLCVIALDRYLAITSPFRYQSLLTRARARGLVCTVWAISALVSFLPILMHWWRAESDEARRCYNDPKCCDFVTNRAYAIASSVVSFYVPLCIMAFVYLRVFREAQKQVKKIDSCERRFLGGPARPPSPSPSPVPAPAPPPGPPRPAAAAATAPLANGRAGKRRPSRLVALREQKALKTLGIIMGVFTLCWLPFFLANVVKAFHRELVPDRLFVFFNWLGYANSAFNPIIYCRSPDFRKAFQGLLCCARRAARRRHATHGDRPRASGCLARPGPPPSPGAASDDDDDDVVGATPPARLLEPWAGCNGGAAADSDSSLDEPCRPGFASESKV
Sequence of M3 (h) (P20309 whole entry): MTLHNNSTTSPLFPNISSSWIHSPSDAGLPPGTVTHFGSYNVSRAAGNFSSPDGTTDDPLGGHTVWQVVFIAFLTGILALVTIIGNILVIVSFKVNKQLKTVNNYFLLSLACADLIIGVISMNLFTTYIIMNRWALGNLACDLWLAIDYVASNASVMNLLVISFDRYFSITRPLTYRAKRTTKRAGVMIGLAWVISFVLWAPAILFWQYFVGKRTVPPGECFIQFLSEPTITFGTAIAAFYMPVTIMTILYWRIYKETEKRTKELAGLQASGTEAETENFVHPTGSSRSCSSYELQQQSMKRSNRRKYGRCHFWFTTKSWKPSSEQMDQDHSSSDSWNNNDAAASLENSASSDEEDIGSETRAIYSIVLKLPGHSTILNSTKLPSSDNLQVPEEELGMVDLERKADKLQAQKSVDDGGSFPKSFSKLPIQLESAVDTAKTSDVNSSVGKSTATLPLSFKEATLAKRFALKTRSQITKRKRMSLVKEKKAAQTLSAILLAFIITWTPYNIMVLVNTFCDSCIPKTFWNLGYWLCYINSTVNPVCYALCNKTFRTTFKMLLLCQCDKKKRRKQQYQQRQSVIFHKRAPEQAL
Sequence of M1 (h) (P11229 whole entry): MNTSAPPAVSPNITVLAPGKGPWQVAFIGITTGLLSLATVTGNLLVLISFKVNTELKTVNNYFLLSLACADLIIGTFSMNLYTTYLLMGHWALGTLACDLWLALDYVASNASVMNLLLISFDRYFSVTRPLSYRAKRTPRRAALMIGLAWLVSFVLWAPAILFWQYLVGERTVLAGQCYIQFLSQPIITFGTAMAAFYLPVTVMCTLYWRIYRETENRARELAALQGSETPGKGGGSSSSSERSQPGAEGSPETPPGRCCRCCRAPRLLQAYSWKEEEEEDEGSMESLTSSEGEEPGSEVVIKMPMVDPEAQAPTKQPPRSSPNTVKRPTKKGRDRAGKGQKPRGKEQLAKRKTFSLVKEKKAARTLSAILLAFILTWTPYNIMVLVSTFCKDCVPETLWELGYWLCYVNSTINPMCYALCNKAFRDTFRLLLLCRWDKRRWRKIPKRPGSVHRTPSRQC
Sequence of COX2(h) (P35354 18-604): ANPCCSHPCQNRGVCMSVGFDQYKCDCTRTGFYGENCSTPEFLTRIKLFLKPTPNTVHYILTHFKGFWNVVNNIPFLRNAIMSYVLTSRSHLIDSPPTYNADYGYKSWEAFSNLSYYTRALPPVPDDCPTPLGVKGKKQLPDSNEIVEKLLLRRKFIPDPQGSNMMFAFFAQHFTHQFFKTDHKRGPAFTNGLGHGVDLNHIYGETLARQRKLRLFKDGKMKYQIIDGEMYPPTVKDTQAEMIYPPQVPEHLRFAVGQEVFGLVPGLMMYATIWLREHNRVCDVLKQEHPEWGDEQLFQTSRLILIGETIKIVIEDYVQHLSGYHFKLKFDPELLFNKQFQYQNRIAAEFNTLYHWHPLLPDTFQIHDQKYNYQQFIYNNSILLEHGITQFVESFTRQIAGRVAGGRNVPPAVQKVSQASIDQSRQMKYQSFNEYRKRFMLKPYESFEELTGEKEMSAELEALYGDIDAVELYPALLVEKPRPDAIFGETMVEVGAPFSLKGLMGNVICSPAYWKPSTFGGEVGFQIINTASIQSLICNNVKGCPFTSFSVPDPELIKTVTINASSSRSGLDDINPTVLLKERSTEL
Sequence of 5-HT2A (h) (P28223 whole entry): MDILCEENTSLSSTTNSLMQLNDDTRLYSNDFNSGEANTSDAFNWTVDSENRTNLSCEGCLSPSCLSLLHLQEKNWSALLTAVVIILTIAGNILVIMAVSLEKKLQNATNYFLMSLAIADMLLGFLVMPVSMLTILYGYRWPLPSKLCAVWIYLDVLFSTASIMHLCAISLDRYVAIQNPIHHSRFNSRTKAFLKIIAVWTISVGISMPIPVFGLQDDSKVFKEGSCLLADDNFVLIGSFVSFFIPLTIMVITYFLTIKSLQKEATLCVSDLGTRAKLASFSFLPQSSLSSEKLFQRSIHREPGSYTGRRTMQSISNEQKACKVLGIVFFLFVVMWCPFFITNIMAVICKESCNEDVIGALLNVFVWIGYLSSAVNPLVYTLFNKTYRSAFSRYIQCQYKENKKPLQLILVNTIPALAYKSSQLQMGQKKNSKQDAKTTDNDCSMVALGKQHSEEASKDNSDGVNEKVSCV
Sequence of CB1 (h) (P21554 whole entry): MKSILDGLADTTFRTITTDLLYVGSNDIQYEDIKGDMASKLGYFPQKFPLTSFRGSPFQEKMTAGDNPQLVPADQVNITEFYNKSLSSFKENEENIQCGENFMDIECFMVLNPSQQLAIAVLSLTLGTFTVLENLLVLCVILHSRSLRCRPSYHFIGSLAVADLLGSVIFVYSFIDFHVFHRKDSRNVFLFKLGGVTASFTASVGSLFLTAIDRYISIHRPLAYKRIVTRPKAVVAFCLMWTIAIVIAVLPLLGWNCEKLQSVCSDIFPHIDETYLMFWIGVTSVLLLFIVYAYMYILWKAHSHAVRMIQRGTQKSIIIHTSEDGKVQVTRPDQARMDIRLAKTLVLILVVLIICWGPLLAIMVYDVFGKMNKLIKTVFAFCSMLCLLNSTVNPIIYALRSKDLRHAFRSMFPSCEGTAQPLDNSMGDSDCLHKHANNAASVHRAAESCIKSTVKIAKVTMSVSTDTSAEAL
Sequence of N neuronal alpha 4beta 2 (h) (P43681 29-627): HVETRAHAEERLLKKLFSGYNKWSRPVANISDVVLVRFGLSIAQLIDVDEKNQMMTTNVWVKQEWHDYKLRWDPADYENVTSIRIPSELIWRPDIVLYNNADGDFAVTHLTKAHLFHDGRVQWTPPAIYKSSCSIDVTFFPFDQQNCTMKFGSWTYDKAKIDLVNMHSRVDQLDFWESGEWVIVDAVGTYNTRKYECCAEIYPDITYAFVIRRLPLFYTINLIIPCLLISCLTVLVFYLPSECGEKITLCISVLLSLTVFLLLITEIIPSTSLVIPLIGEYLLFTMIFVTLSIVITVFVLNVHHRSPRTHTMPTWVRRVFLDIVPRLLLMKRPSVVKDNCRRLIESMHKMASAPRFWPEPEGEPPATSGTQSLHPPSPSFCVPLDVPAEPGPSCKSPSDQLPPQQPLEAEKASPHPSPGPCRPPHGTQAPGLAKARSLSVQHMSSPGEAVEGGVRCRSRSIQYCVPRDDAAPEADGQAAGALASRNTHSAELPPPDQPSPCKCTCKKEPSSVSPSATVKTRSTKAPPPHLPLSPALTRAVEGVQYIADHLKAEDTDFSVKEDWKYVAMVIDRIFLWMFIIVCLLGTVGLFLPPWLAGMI
Sequence of N neuronal alpha 4beta 2 (h) (P17787 26-502): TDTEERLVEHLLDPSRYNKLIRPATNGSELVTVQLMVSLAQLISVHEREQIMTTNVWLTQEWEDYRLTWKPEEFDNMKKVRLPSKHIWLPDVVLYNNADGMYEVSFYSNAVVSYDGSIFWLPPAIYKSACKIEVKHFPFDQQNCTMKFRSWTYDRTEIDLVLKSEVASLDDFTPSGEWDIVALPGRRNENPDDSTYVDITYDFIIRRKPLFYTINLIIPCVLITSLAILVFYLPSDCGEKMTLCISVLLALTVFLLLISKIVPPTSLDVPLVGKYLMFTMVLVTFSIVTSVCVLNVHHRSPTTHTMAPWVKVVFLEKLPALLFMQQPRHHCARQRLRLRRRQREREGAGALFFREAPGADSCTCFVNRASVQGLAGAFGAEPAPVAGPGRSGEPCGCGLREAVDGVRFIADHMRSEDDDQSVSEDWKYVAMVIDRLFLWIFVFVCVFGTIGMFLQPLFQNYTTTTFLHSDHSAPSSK
Sequence of D1 (h) (P21728 whole entry): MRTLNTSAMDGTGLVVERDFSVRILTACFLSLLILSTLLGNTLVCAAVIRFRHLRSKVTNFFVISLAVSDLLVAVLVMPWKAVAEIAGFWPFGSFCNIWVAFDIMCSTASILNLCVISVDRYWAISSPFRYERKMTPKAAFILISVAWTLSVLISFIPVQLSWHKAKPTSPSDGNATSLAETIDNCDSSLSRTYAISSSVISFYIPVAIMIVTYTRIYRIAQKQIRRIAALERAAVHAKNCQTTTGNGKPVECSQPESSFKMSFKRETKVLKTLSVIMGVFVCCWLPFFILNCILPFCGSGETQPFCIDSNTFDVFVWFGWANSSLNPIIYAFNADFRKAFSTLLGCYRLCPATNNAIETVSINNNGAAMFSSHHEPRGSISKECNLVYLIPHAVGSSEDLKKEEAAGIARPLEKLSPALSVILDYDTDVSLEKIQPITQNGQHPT
Sequence of CB2 (h) (P34972 whole entry): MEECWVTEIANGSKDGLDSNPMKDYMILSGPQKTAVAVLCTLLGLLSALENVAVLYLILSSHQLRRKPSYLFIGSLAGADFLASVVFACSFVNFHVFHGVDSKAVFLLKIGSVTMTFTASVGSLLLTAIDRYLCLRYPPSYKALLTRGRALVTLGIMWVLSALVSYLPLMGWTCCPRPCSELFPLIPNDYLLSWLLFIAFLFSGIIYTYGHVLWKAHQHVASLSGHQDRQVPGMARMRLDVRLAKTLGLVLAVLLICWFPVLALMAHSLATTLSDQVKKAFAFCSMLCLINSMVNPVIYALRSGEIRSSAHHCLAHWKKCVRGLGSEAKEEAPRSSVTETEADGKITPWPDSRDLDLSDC

For `CCN(CC)CCOc1ccc2c(c1)C(=O)c1cc(OCCN(CC)CC)ccc1-2` [tilorone], the inhibition at 1 µM on A2A (h) is -4%; at alpha 1A (h) it was 26%; at beta 1 (h), 5%; on beta 2 (h), -6%; at CB1 (h), 0%; at CB2 (h), -16%. The inhibition at 1 µM is -10% on D1 (h); 28% at M1 (h); 26% on M2 (h); 17% at M3 (h); 0% in experiment [1]; -4% on mu (MOP) (h). For the same compound, the inhibition at 1 µM at 5-HT2A (h) is 25%; at V1a (h), -1%; in experiment [2], 14%; at COX2(h), -1%. The “% Inhibition of Specific Control Binding” value in the experiment with Na+ channel (site 2) worked out at 1%.
